Assay results as given in patent US12173018B2, “Penicillin-binding protein inhibitors” (priority 2018, dated 2024).
pEC50: −log10 of the molar value. In brackets after ≈: the same amount, converted by molar mass. Where two headings read alike, the source gives them in different places.

Columns and labels:
[1] = system: N. gonorrhoeae WHO F; assay: Liquid broth MIC, N. gonorrhoeae WHO F; type: cell-based; conditions: Neisseria gonorrhoeae; N. gonorrhoeae WHO F, liquid broth; read-out: Minimum Inhibitory Concentration, N. gonorrhoeae WHO F
Procedure, shortened: (§1)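 In liquid broth, wild-type reference gonococci at 5×10^5 CFU/mL faced twofold compound dilutions for 40-42 hours (36° C, 5% CO2). The MIC was the lowest concentration with no growth seen by eye.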

[2] = system: K. pneumoniae SI-117; assay: microbe, parasite or virus in culture; type: cell-based; conditions: Klebsiella pneumoniae, SI117, read-out: MIC K. pneumoniae SI-117
Procedure, shortened: (§2)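 Visual MIC readout after 16-20 h at 37° C in CLSI-format microdilution. Compounds tested as 2-fold series against a 5×10^5 CFU/mL inoculum in cation-supplemented Mueller-Hinton broth.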

[3] = system: K. pneumoniae UMM; assay: microbe, parasite or virus in culture; type: cell-based; conditions: Klebsiella pneumoniae, read-out: MIC K. pneumoniae UMM
Procedure, shortened: as §2

[4] = system: N. gonorrhoeae FA19; assay: Liquid broth MIC, N. gonorrhoeae FA19; type: cell-based; conditions: Neisseria gonorrhoeae; N. gonorrhoeae FA19, liquid broth; read-out: Minimum Inhibitory Concentration, N. gonorrhoeae FA19
Procedure, shortened: as §1

[5] = system: N. gonorrhoeae FA1090; assay: Liquid broth MIC, N. gonorrhoeae FA1090; type: cell-based; conditions: Neisseria gonorrhoeae; N. gonorrhoeae FA1090, liquid broth; read-out: Minimum Inhibitory Concentration, N. gonorrhoeae FA1090
Procedure, shortened: as §1

[6] = system: E. coli ATCC 25922; assay: Broth microdilution MIC, E. coli ATCC 25922; type: cell-based; conditions: Escherichia coli, ATCC25922; E. coli ATCC 25922, broth microdilution; read-out: MIC E. coli 25922
Procedure, shortened: as §2

[7] = biological target: E. coli PBP3 (Escherichia coli (strain K12), UniProt P0AD68); assay: E. coli PBP3 Bocillin-FL fluorescence polarization competition binding assay
Procedure, shortened: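 Steps: purified PBP (1.5 μM final) mixed with compound (0–1000 μM) in 50 mM Hepes pH 8.0, 300 mM NaCl, 5% glycerol; Bocillin-FL added to 0.1 μM; FP (ex 490, em 520 nm) followed for 60 min. Concentration reducing Bocillin-FL binding reported as EC50.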

[8] = K. pneumoniae UMM producing SHV-5 and KPC-2
[9] = fluorescence polarization competition binding with Bocillin-FL, read-out: E. coli K12 PBP3 Potency

Sequence of E. coli PBP3 (P0AD68 whole entry): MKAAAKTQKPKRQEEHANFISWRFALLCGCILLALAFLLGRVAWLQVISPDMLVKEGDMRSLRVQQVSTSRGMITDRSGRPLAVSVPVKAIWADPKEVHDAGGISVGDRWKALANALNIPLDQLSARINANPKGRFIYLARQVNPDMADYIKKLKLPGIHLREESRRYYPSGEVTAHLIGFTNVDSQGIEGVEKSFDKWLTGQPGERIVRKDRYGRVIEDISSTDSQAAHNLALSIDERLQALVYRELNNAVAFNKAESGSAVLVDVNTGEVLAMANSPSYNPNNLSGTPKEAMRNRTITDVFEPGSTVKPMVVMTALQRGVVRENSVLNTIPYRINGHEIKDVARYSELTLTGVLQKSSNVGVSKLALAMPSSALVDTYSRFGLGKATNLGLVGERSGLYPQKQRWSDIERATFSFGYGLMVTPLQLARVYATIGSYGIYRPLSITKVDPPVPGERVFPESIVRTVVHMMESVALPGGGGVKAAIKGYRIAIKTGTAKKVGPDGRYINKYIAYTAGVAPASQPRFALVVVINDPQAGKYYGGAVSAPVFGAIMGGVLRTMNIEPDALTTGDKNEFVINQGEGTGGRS

Compound | MIC [1] [µg/mL] | MIC [2] [µg/mL] | MIC [3, 8] [µg/mL] | MIC [4] [µg/mL] | MIC [5] [µg/mL] | MIC [6] [µg/mL] | pEC50 [7, 9] | MIC [3] [µg/mL] | pEC50 [7]
CCN1CCN(C(=O)NC(C(=O)N[C@H]2Cc3cccc(C(=O)O)c3OB2O)c2csc(N)n2)C(=O)C1=O (stereo partly drawn) [Example 5, (3R)-3-(2-(2-aminothiazol-4-yl)-2-(4-ethyl-2,3-dioxopiperazine-1-carboxamido)acetamido)-2-hydroxy-3,4-dihydro-2H-benzo[e][1,2]oxaborinine-8-carboxylic acid] | < 0.125 | 8 to 16 | 8 to 16 | 1 to 2 (≈ 1.89 to 3.77 µM) | < 0.125 | 8 to 16 |  |  | 
CCN1CCN(C(=O)NC(C(=O)N[C@H]2Cc3cccc(C(=O)O)c3OB2O)c2ccc(O)c(O)c2F)C(=O)C1=O (stereo partly drawn) [Example 70] | < 0.125 | 8 to 16 | 0.5 to 1 | 1 to 2 (≈ 1.79 to 3.58 µM) | < 0.125 | 2 to 4 | > 4.52 |  | 
NS(=O)(=O)c1ccc(C(NC(=O)N2CCN(CCF)C(=O)C2=O)C(=O)N[C@H]2Cc3cccc(C(=O)O)c3OB2O)cc1 (stereo partly drawn) [Example 103, (3R)-3-(2-(4-(2-fluoroethyl)-2,3-dioxopiperazine-1-carboxamido)-2-(4-sulfamoylphenyl)acetamido)-2-hydroxy-3,4-dihydro-2H-benzo[e][1,2]oxaborinine-8-carboxylic acid] | < 0.125 |  | 32 to 64 | 1 to 2 (≈ 1.65 to 3.3 µM) | < 0.125 | 32 to 64 | > 4.52 |  | 
CCN1CCN(C(=O)NC(C(=O)N[C@H]2Cc3ccc(F)c(C(=O)O)c3OB2O)c2csc(N)n2)C(=O)C1=O (stereo partly drawn) [Example 109, (3R)-3-(2-(2-aminothiazol-4-yl)-2-(4-ethyl-2,3-dioxopiperazine-1-carboxamido)acetamido)-7-fluoro-2-hydroxy-3,4-dihydro-2H-benzo[e][1,2]oxaborinine-8-carboxylic acid] | 0.25 to 0.5 (≈ 0.456 to 0.912 µM) | 8 to 16 | 8 to 16 | 4 to 8 (≈ 7.3 to 14.6 µM) | 0.25 to 0.5 (≈ 0.456 to 0.912 µM) | 8 to 16 | > 4.52 |  | 
CCN1CCN(C(=O)NC(C(=O)N[C@H]2Cc3cccc(C(=O)O)c3OB2O)c2ccc(B(O)O)cc2)C(=O)C1=O (stereo partly drawn) [Example 112] | < 0.125 | > 128 |  | 1 to 2 (≈ 1.81 to 3.62 µM) | < 0.125 | 32 to 64 |  | 32 to 64 | 3.30 to 4.52
O=C(O)c1cccc2c1OB(O)[C@@H](NC(=O)C(NC(=O)N1CCN(CCF)C(=O)C1=O)c1ccc(B(O)O)cc1)C2 (stereo partly drawn) [Example 113, (3R)-3-(2-(4-boronophenyl)-2-(4-(2-fluoroethyl)-2,3-dioxopiperazine-1-carboxamido)acetamido)-2-hydroxy-3,4-dihydro-2H-benzo[e][1,2]oxaborinine-8-carboxylic acid] | < 0.125 | > 128 | 32 to 64 | 1 to 2 (≈ 1.75 to 3.51 µM) | < 0.125 | 32 to 64 |  |  | 3.30 to 4.52
CCN1CCN(C(=O)NC(C(=O)N[C@H]2Cc3ccc(F)c(C(=O)O)c3OB2O)c2ccc(O)c(O)c2Cl)C(=O)C1=O (stereo partly drawn) [Example 124, (3R)-3-(2-(2-chloro-3,4-dihydroxyphenyl)-2-(4-ethyl-2,3-dioxopiperazine-1-carboxamido)acetamido)-7-fluoro-2-hydroxy-3,4-dihydro-2H-benzo[e][1,2]oxaborinine-8-carboxylic acid] | < 0.125 | 8 to 16 | 8 to 16 | 4 to 8 (≈ 6.75 to 13.5 µM) | 1 to 2 (≈ 1.69 to 3.37 µM) | 8 to 16 |  |  | 3.30 to 4.52
CCCN1CCN(C(=O)NC(C(=O)N[C@H]2Cc3ccc(F)c(C(=O)O)c3OB2O)c2ccc(O)c(O)c2Cl)C(=O)C1=O (stereo partly drawn) [Example 125] | 0.25 to 0.5 (≈ 0.412 to 0.824 µM) | 2 to 4 | 32 to 64 | 16 to 32 (≈ 26.4 to 52.7 µM) | 1 to 2 (≈ 1.65 to 3.3 µM) | 2 to 4 |  |  | 3.30 to 4.52
O=C(O)c1c(F)ccc2c1OB(O)[C@@H](NC(=O)C(NC(=O)N1CCN(CCF)C(=O)C1=O)c1ccc(O)c(O)c1Cl)C2 (stereo partly drawn) [Example 131] | 0.25 to 0.5 (≈ 0.409 to 0.819 µM) | 8 to 16 | 8 to 16 | 4 to 8 (≈ 6.55 to 13.1 µM) | 0.25 to 0.5 (≈ 0.409 to 0.819 µM) | 2 to 4 |  |  | 3.30 to 4.52
CCN1CCN(C(=O)NC(C(=O)N[C@H]2Cc3cccc(C(=O)O)c3OB2O)c2ncc(O)cc2F)C(=O)C1=O (stereo partly drawn) [Example 135, (3R)-3-(2-(4-ethyl-2,3-dioxopiperazine-1-carboxamido)-2-(3-fluoro-5-hydroxypyridin-2-yl)acetamido)-2-hydroxy-3,4-dihydro-2H-benzo[e][1,2]oxaborinine-8-carboxylic acid] | < 0.125 | 32 to 64 | 8 to 16 | 1 to 2 (≈ 1.84 to 3.68 µM) | < 0.125 | 2 to 4 | > 4.52 |  | 
CCN1CCN(C(=O)NC(C(=O)N[C@H]2Cc3ccc(F)c(C(=O)O)c3OB2O)c2cc(O)c(O)cc2F)C(=O)C1=O (stereo partly drawn) [Example 136, (3R)-3-(2-(4-ethyl-2,3-dioxopiperazine-1-carboxamido)-2-(2-fluoro-4,5-dihydroxyphenyl)acetamido)-7-fluoro-2-hydroxy-3,4-dihydro-2H-benzo[e][1,2]oxaborinine-8-carboxylic acid] | 1 to 2 (≈ 1.74 to 3.47 µM) | > 128 | 8 to 16 | 4 to 8 (≈ 6.94 to 13.9 µM) | 1 to 2 (≈ 1.74 to 3.47 µM) | 8 to 16 | > 4.52 |  | 
CCN1CCN(C(=O)NC(C(=O)N[C@H]2Cc3ccc(F)c(C(=O)O)c3OB2O)c2ncc(O)cc2F)C(=O)C1=O (stereo partly drawn) [Example 145, (3R)-3-(2-(4-ethyl-2,3-dioxopiperazine-1-carboxamido)-2-(3-fluoro-5-hydroxypyridin-2-yl)acetamido)-7-fluoro-2-hydroxy-3,4-dihydro-2H-benzo[e][1,2]oxaborinine-8-carboxylic acid] | < 0.125 | 32 to 64 | 8 to 16 | 1 to 2 (≈ 1.78 to 3.56 µM) | < 0.125 | 8 to 16 | > 4.52 |  | 
CCN1CCN(C(=O)NC(C(=O)N[C@H]2Cc3ccc(F)c(C(=O)O)c3OB2O)c2ccc(O)c(O)c2F)C(=O)C1=O (stereo partly drawn) [Example 149, (3R)-3-(2-(4-ethyl-2,3-dioxopiperazine-1-carboxamido)-2-(2-fluoro-3,4-dihydroxyphenyl)acetamido)-7-fluoro-2-hydroxy-3,4-dihydro-2H-benzo[e][1,2]oxaborinine-8-carboxylic acid] | < 0.125 | 2 to 4 | 2 to 4 | 1 to 2 (≈ 1.74 to 3.47 µM) | 0.25 to 0.5 (≈ 0.434 to 0.868 µM) | 8 to 16 |  |  | 3.30 to 4.52
CCN1CCN(C(=O)NC(C(=O)N[C@H]2Cc3cccc(C(=O)O)c3OB2O)c2ncc(O)cc2Cl)C(=O)C1=O (stereo partly drawn) [Example 150, (3R)-3-(2-(4-ethyl-2,3-dioxopiperazine-1-carboxamido)-2-(3-chloro-5-hydroxypyridin-2-yl)acetamido)-2-hydroxy-3,4-dihydro-2H-benzo[e][1,2]oxaborinine-8-carboxylic acid] | 0.25 to 0.5 (≈ 0.447 to 0.893 µM) | > 128 | 32 to 64 | 4 to 8 (≈ 7.15 to 14.3 µM) | 0.25 to 0.5 (≈ 0.447 to 0.893 µM) | 32 to 64 | > 4.52 |  | 
CCN1CCN(C(=O)NC(C(=O)N[C@H]2Cc3ccc(F)c(C(=O)O)c3OB2O)c2ncc(O)cc2Cl)C(=O)C1=O (stereo partly drawn) [Example 151, (3R)-3-(2-(3-chloro-5-hydroxypyridin-2-yl)-2-(4-ethyl-2,3-dioxopiperazine-1-carboxamido)acetamido)-7-fluoro-2-hydroxy-3,4-dihydro-2H-benzo[e][1,2]oxaborinine-8-carboxylic acid] | < 0.125 | 32 to 64 | 32 to 64 | 4 to 8 (≈ 6.92 to 13.8 µM) | 0.25 to 0.5 (≈ 0.433 to 0.865 µM) | > 128 | > 4.52 |  | 
CCN1CCN(C(=O)N[C@@H](C(=O)N[C@H]2Cc3ccc(F)c(C(=O)O)c3OB2O)c2ccc(O)c(F)c2)C(=O)C1=O [Example 161, (R)-3-((R)-2-(4-ethyl-2,3-dioxopiperazine-1-carboxamido)-2-(3-fluoro-4-hydroxyphenyl)acetamido)-7-fluoro-2-hydroxy-3,4-dihydro-2H-benzo[e][1,2]oxaborinine-8-carboxylic acid] | < 0.125 | > 128 | 32 to 64 | 1 to 2 (≈ 1.78 to 3.57 µM) | < 0.125 | > 128 | > 4.52 |  | 
CCN1CCN(C(=O)N[C@@H](C(=O)N[C@H]2Cc3cccc(C(=O)O)c3OB2O)c2ncc(O)cc2F)C(=O)C1=O [Example 177, (R)-3-((R)-2-(4-ethyl-2,3-dioxopiperazine-1-carboxamido)-2-(3-fluoro-5-hydroxypyridin-2-yl)acetamido)-2-hydroxy-3,4-dihydro-2H-benzo[e][1,2]oxaborinine-8-carboxylic acid] | < 0.125 | 32 to 64 | 8 to 16 | 4 to 8 (≈ 7.36 to 14.7 µM) | < 0.125 | 8 to 16 | > 4.52 |  | 
